Values quoted from earlier work, collected in patent US20090311335A1, “COMBINATION OF A TRIPTAN AND AN NSAID” (priority 2008, published 2009).

How the values were obtained:
[1] = oral 75 mg or 150 mg, dual-release formulation
[2] = single intravenous dose, range 5 to 60 mg

dose proportionality of pharmacokinetics [2] | solubility in methanol (methanol) | solubility in strong acids and bases (strong acids and bases) | solubility in water (water) | SMILES | efficacy and tolerability in acute treatment of migraine attacks [1]
– | – | – | – | CC(C(=O)O)c1cccc(C(=O)c2ccccc2)c1 (centres unmarked) [ketoprofen] | effective and well-tolerated
dose-proportional | very slightly soluble | higher solubility | practically insoluble | Cc1cnc(NC(=O)C2=C(O)c3ccccc3S(=O)(=O)N2C)s1 [Meloxicam, 4-hydroxy-2-methyl-N-(5-methyl-2-thiazolyl-)-2-H-1,2-benzothiazine-3-carboxamide 1,1-dioxide] | –
